Assay results taken from patent US20220396794A1, “APTAMERS AGAINST TRANSFERRIN RECEPTOR (TfR)” (APTERNA LIMITED, priority 2019, published 2022).

Key:
TfR1 = molecular target: T1, TfR1 (Homo sapiens, UniProt P02786); assay: Cross-reactivity by live cell confocal imaging, U87MG cells (express TfR1, not TfR2); format: cell-based; conditions: Cy3-labelled aptamer, U87MG cells (TfR1 only)
T1 construct: The U87MG cells only express TfR1, not TfR2; endogenous in cells; host or cells: U87MG (U-87 MG, ATCC HTB-14)
T1 sequence (P02786 whole entry): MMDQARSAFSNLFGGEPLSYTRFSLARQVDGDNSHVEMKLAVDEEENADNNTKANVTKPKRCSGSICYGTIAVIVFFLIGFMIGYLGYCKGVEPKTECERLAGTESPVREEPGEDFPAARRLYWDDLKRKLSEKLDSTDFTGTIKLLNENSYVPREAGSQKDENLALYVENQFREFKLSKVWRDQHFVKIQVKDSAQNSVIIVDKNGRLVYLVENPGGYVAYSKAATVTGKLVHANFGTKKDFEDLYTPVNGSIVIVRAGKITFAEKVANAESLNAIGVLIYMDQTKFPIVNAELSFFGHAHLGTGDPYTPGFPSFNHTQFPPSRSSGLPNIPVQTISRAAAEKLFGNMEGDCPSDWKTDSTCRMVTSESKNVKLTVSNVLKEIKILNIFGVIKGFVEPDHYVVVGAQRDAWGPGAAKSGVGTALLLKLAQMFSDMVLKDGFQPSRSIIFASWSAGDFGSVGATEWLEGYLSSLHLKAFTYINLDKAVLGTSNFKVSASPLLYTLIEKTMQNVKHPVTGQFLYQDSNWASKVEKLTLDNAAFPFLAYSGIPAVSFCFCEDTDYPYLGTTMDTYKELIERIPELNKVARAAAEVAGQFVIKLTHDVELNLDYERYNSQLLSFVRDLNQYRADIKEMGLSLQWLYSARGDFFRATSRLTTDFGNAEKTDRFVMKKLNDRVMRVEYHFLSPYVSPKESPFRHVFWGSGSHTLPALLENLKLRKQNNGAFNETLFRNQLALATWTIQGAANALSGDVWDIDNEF
Procedure: (§1) Cell line. HepG2 (Hepatocarcinoma, HB-8065) and PANC-1 (Pancreatic epithelioid carcinoma, CRL-1469), U-87 MG (Glioblastoma, HTB-14) were purchased from the American Type Culture Collection (ATCC, Manassas, Va.). The cells were cultured according to the suppliers' instructions. TB10 human glioma cell line was obtained from Vittorio de Franciscis lab in Italy. The cells were cultured according to the suppliers' instructions.
(§2) To determine the potential cross-reactivity of the parent TR14, S2 (43-nt) and ST1-3 (22-nt) truncates, we tested chemically synthesized parent TR14, TR14-[…] or TR14-ST1-3 aptamer labelled with Cy3 on live cells imaging by confocal microscopy. To test this, we choose two glioblastoma cell lines (U87MG and TB10) that are selectively expressed of TfR1 or TfR2. The U87MG cells only express TfR1, not TfR2. In contrast, TB10 expresses TfR2, not TfR1.

TfR2 = molecular target: T2, TfR2 (Homo sapiens, UniProt Q9UP52); assay: Cross-reactivity by live cell confocal imaging, TB10 cells (express TfR2, not TfR1); format: cell-based; conditions: Cy3-labelled aptamer, TB10 cells (TfR2 only)
T2 construct: In contrast, TB10 expresses TfR2, not TfR1; endogenous in cells; host or cells: TB10 human glioma cells
T2 sequence (Q9UP52 1-801): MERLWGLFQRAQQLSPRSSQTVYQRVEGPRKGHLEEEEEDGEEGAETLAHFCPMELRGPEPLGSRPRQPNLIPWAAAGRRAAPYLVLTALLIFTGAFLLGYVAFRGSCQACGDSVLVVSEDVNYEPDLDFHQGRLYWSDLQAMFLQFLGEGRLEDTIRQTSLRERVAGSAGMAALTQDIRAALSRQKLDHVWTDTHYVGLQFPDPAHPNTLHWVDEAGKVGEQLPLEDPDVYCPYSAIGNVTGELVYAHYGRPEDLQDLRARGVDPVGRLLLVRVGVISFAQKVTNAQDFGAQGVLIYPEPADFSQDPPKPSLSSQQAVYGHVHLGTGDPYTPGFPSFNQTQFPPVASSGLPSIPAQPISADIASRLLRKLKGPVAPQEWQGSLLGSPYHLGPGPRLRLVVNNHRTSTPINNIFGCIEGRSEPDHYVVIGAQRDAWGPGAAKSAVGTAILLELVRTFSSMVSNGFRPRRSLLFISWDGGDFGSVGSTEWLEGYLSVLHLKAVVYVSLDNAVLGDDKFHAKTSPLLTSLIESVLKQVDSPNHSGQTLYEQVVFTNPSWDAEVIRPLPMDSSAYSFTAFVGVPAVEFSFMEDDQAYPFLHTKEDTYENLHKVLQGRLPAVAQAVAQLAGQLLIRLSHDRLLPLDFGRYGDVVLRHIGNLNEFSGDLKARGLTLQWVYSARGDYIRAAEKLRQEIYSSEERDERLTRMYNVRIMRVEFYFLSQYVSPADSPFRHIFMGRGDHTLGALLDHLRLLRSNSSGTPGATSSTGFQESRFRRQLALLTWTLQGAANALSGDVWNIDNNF
Procedure: as §1, §2

[1] = molecular target: T3, hTfR1 (extracellular domain of hTfR, His6-tagged) (Homo sapiens, UniProt P02786); assay: Surface plasmon resonance-based biosensor assay (Biacore T100), aptamer-hTfR binding affinity and kinetics; conditions: for ka (1/Ms), measured association rate / kd (1/s), measured disassociation rate / Kd: Biacore T100, biotinylated aptamer on streptavidin chip, hTfR1 protein injected, 1:1 binding with mass transfer; for Kd: read-out: K^D (M), equilibrium dissociation constant; for binding affinity and kinetics for hTfR1 (Biacore sensorgram), in words: compared with parent TR14
T3 construct: (NP_003225.2) (Cys 89-Phe 760); His6 (N); purchased Sino Biological Inc 11020-H07H; host or cells: HEK293
T3 sequence (P02786 89-760): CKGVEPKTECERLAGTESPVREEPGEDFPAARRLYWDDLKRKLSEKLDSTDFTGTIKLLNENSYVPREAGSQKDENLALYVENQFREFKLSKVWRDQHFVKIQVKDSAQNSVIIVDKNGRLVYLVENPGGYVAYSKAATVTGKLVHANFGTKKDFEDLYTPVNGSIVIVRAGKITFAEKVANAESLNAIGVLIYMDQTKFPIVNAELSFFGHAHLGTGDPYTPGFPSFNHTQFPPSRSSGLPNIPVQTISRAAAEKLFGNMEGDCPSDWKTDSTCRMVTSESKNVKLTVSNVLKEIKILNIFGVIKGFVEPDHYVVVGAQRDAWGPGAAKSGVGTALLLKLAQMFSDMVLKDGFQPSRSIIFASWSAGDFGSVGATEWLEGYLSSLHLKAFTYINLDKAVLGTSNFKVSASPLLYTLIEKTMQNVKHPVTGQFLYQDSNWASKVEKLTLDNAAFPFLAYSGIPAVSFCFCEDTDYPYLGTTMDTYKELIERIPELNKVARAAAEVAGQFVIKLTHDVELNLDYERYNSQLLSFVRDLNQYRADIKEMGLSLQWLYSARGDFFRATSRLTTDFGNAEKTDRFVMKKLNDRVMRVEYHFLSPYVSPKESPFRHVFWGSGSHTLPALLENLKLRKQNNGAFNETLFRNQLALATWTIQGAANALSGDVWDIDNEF
Text: Recombinant target protein. hTfR was purchased from Sino Biological Inc (11020-H07H, Beijing, P.R. China). The extracellular domain of hTfR (NP_003225.2) (Cys 89-Phe 760) was expressed with a His6-tag at the N-terminus in human cells (HEK293).
Surface plasmon resonance-based biosensor assay. The Biacore T100 (GE Healthcare, Uppsala, Sweden) was used to monitor label-free interactions of truncated TR14-hTfR1 in real time. The biotinylated aptamer was coupled to a streptavidin-coated Biacore chip (SensorChip SA, BR-1003-98, General Electric Company) by an injection in binding buffer at a concentration of 25 μg/mL (30 mM Tris-HCl, pH 7.5; 150 mM NaCl; 5 mM MgCl2) at 10 uL/min. The RNA was refolded by heating to 65° C., followed by cooling to 37° C., before immobilization. To measure binding kinetics, five concentrations of purified hTfR1 protein were injected at a flow rate of 10 uL/min. After binding, the surface was regenerated by injecting 50 mM NaOH at a flow rate of 15 μL/min for 20 s. Data from the control surface were subtracted. BIAevaluation software (GE Healthcare) was used for analysis. The binding data was fit to a 1:1 binding with a mass transfer model to calculate kinetics parameters as previously described (Hernandez et al, 2009; Soontornworajit et al, 2011)

PANC-Luc tumors = assay: Liver-metastatic pancreatic cancer mouse model, combinational treatment with gemcitabine; format: in vivo, NOD/SCID mice; conditions: gemcitabine alone 50 mg/kg 2 times/week I.V., compared to vehicle-treated control
Procedure: Intrahepatic pancreatic cancer liver-metastatic mouse model. To create an animal model harboring traceable tumors, a firefly luciferase fragment was inserted into the pLKO.1-AS3 backbone encoding the neo gene (National RNAi Core, Academia Sinica, Taiwan). One day before transduction, 293T cells were plated onto a 6-well plate. On the day of transduction, the medium was replaced with DMEM containing serial dilutions of the transfer plasmids and incubated for 5 h, then the medium was replaced. After two days, the culture medium containing recombinant lentiviral particles was obtained. PANC-1 cells were incubated with recombinant lentiviral particles for 24 h. […] Luciferase expression was assessed using the Luciferase Assay System. […] For the combinational treatment with gemcitabine, tumors were allowed to grow for 2 weeks after inoculation until they could be detected using an IVIS system, then mice were randomly divided into five groups of 10 animals/group. […] Tumor growth was monitored by evaluating bioluminescence using an IVIS 200 in vivo imaging platform (Caliper Life Sciences, Alameda, Calif.) and measuring the difference from before the first injection and one day after the last injection. […] The mice were imaged using the IVIS 200 and bioluminescent signals were analyzed using Living Image Software (Caliper Life Sciences, Alameda, Calif.). […]

Molecule | binding to TfR1 (TfR1) | binding to TfR2 (TfR2) | ka (1/Ms), measured association rate [1] [M⁻¹ s⁻¹] | kd (1/s), measured disassociation rate [1] [s⁻¹] | Kd [1] [M] | binding affinity and kinetics for hTfR1 (Biacore sensorgram), in words [1] | reduction of tumor volume (PANC-Luc tumors) [%]
TR14 ST1-3: TR14 truncate, 22-nt, 5′-UUUAUUCACAUUUUUGAAUUGA-3′; SEQ ID NO:6 (listed as RNA, chemistry not given here) | cross-activity on both TfR1 and TfR2 | cross-activity on both TfR1 and TfR2 | 6.3e+06 | 0.000138 | 2.2e-11 | – | –
TR14 S2: TR14 truncate, 43-nt, with 5′-GGG; SEQ ID NO:3 (GGGGCUCAAUGCGUUCACGUUUAUUCACAUUUUUGAAUUGAGC; listed as RNA, chemistry not given here) | selective binding to TfR1 | selective binding to TfR1 | 8.34e+08 | 0.000577 | – | improved kinetic constants | –
TR14 S1: TR14 truncate, 46-nt, with 5′-GGG; SEQ ID NO:2 (GGGGCUCAAUGCGUUCACGUUUAUUCACAUUUUUGAAUUGAGCAUG; listed as RNA, chemistry not given here) | – | – | 13000 | 1.89e-05 | 1.46e-09 | – | –
Nc1ccn([C@@H]2O[C@H](CO)[C@@H](O)C2(F)F)c(=O)n1 [gemcitabine, 2′, 2′-difluoro 2′deoxycytidine, reference compound] | – | – | – | – | – | – | ~70
TR14 ST1-2: TR14 truncate, 32-nt, 5′-AAUGCGUUCACGUUUAUUCACAUUUUUGAAUU-3′; SEQ ID NO:5 (listed as RNA, chemistry not given here) | – | – | – | – | – | neither TR14 ST1-1 nor TR14 ST1-2 were measurable | –
TR14 ST1-1: TR14 truncate, 40-nt, without 5′-GGG, chemically synthesized; SEQ ID NO:4 (GCUCAAUGCGUUCACGUUUAUUCACAUUUUUGAAUUGAGC; chemically synthesized, modifications not given here, further chemistry not given here) | – | – | – | – | – | neither TR14 ST1-1 nor TR14 ST1-2 were measurable | –
